Assay results: patent US10933062B2, “Analgesic therapeutic and method, 1-(3-4(((1 R,3S,5S)-adamantan-1-yl)(phenyl)methyl)propyl)-4-methylpiperazine and salts thereof” (ANAVEX LIFE SCIENCES CORP., priority 2016, dated 2021)
Where “and” joins values, the source holds several entries; their conditions need not be identical. Identical values can stand only once.

Key:
[1] = test system: model of TNBS-induced chronic colonic hypersensitivity in rats; assay: TNBS-induced chronic colonic hypersensitivity, colorectal balloon distension threshold; conditions: for % antihypersensitivity activity / Colonic distension threshold (mmHg): TNBS 50 mg/kg
[2] = test system: patients with nociceptive or neuropathic pain; assay: Patient examples 1-5: oral AV1066, patient-reported pain control; format: in vivo, human; conditions: Example 1, bone fracture pain (nociceptive), oral 5 mg/kg/day, days 3, 7, 16, 28
Procedure: A patient or subject (the terms are used interchangeably) presents with a fractured collar bone arising from a bicycling accident. They are complaining of significant shoulder pain. The patient's pain is classified according to the
International Association for the Study of Pain as nociceptive. They are orally administered AV1066 5 mg/kg/day. They are examined at days 3, 7, 16, and 28. At each visit the patient is assessed for pain control compared with the previous visit.
A patient presents with a second […]. They are complaining of significant pain. The patient's pain is classified according to the International Association for the Study of Pain as nociceptive. They are orally administered the phosphate salt of AV1066 10 mg/kg daily in two doses. They are examined at 12 hours, and daily thereafter for 4 days. At each visit the patient is assessed for pain control compared with the previous visit.
A patient presents with a benign tumor mass compressing their left shoulder causing movement pain. The patient's pain is classified according to the International Association for the Study of Pain as nociceptive. They are orally administered the sodium salt of AV1066 30 mg/kg/day in two doses. They are examined daily thereafter at 3, 7, and 28 days. At each visit the patient is assessed for pain control compared with the previous visit. […]

[3] = test system: model of peripheral mononeuropathy (Bennett model) in rats; assay: Chronic constriction injury (Bennett model) of peripheral mononeuropathy, paw pressure test; format: in vivo
[4] = test system: model of peripheral mononeuropathy (Bennett model) in rats; conditions: typical values given for comparison; cited from earlier work
[5] = injured paw, TO (pre-drug), 10 mg/kg p.o.
[6] = injured paw, TO (pre-drug), 30 mg/kg p.o.
[7] = injured paw, TO (pre-drug), 100 mg/kg p.o.
[8] = injured paw, TO + 30 min, 10 mg/kg p.o.
[9] = injured paw, TO + 30 min, 30 mg/kg p.o.
[10] = injured paw, TO + 30 min, 100 mg/kg p.o.
[11] = injured paw, TO + 60 min, 10 mg/kg p.o.
[12] = injured paw, TO + 60 min, 30 mg/kg p.o.
[13] = injured paw, TO + 60 min, 100 mg/kg p.o.
[14] = injured paw, TO + 120 min, 10 mg/kg p.o.
[15] = injured paw, TO + 120 min, 30 mg/kg p.o.
[16] = injured paw, TO + 120 min, 100 mg/kg p.o.
[17] = injured paw, TO + 180 min, 10 mg/kg p.o.
[18] = injured paw, TO + 180 min, 30 mg/kg p.o.
[19] = injured paw, TO + 180 min, 100 mg/kg p.o.
[20] = single administration 10, 30, 100 mg/kg PO
[21] = injured paw, TO (pre-drug), 3 mg/kg s.c.
[22] = injured paw, TO + 30 min, 3 mg/kg s.c.
[23] = injured paw, TO + 60 min, 3 mg/kg s.c.
[24] = injured paw, TO + 120 min, 3 mg/kg s.c.
[25] = injured paw, TO + 180 min, 3 mg/kg s.c.

In the case of `CN1CCN(CCCc2ccc(C(c3ccccc3)C34CC5CC(CC(C5)C3)C4)cc2)CC1` [AV1066, 1-(3-4(((1R,3S,5S)-adamantan-1-yl)(phenyl)methyl)propyl)-4-methylpiperazine], the “% antihypersensitivity activity” value ([1]; 10 mg/kg p.o.) is reported as 26%, the “Colonic distension threshold (mmHg)” value ([1]; 10 mg/kg p.o.) is reported as 30.3 ± 1.3 mmHg and the “% antihypersensitivity activity” value ([1]; 30 mg/kg p.o.) is reported as 71%. For the same compound, the “Colonic distension threshold (mmHg)” value ([1]; 30 mg/kg p.o.) was 36.4 ± 1.3 mmHg, the untoward effects ([1]; TNBS study, single PO administration) was “No untoward effects” and the patient-reported pain control [2] was “tolerable and improved at each visit”. For the same compound, the “difference in the nociceptive threshold vs. vehicle” value ([3]; 30 mg/kg dose, T=+30 minutes) was 116 g, the anti-hyperalgesic effect ([3]; 30 mg/kg dose, T=+30 minutes, vs vehicle) was 59% and the untoward effects ([3]; CCI study, 10, 30, 100 mg/kg PO) was “No untoward effects”. The “Nociceptive threshold” value ([3]; control paw, TO, 10 mg/kg p.o.) was 366 ± 11.9 g, the “Nociceptive threshold” value ([3]; control paw, TO, 30 mg/kg p.o.) was 352 ± 15.8 g and the “Nociceptive threshold” value ([3]; control paw, TO, 100 mg/kg p.o.) was 354 ± 9.9 g. For the same compound, the “% variation vs control paw” value [3, 5] was −54%, the “% variation vs vehicle-treated group” value [3, 5] was −15% and the “Nociceptive threshold” value [3, 5] was 170 ± 11.6 g. The “% variation vs control paw” value [3, 6] was −45%, the “% variation vs vehicle-treated group” value [3, 6] was −4% and the “Nociceptive threshold” value [3, 6] was 192 ± 8.5 g. For the same compound, the “% variation vs control paw” value [3, 7] was −49%, the “% variation vs vehicle-treated group” value [3, 7] was −9% and the “Nociceptive threshold” value [3, 7] was 182 ± 9.6 g. The “% variation vs control paw” value [3, 8] was −32%, the “% variation vs pre-drug threshold” value [3, 8] was 38% and the “% variation vs vehicle-treated group” value [3, 8] was 19%. The “Nociceptive threshold” value [3, 8] was 234 ± 11.2 g, the “% variation vs control paw” value [3, 9] was −19% and the “% variation vs pre-drug threshold” value [3, 9] was 63%. The “% variation vs vehicle-treated group” value [3, 9] was 59%, the “Nociceptive threshold” value ([3]; injured paw, TO + 30 min, 30 mg/kg p.o., 30 mg/kg) was 312 g and 312 ± 15.5 g and the “% variation vs control paw” value [3, 10] was −20%. The “% variation vs pre-drug threshold” value [3, 10] was 64%, the “% variation vs vehicle-treated group” value [3, 10] was 52% and the “Nociceptive threshold” value [3, 10] was 298 ± 21.4 g. For the same compound, the “% variation vs control paw” value [3, 11] was −29%, the “% variation vs pre-drug threshold” value [3, 11] was 39% and the “% variation vs vehicle-treated group” value [3, 11] was 6%. For the same compound, the “Nociceptive threshold” value [3, 11] was 236 ± 11.5 g, the “% variation vs control paw” value [3, 12] was −16% and the “% variation vs pre-drug threshold” value [3, 12] was 43%. The “% variation vs vehicle-treated group” value [3, 12] was 23%, the “Nociceptive threshold” value [3, 12] was 274 ± 14.3 g and the “% variation vs control paw” value [3, 13] was −11%. The “% variation vs pre-drug threshold” value [3, 13] was 60%, the “% variation vs vehicle-treated group” value [3, 13] was 32% and the “Nociceptive threshold” value [3, 13] was 292 ± 17.2 g. The “% variation vs control paw” value [3, 14] was −30%, the “% variation vs pm-drug threshold” value [3, 14] was 27% and the “% variation vs vehicle-treated group” value [3, 14] was 6%. For the same compound, the “Nociceptive threshold” value [3, 14] was 216 ± 12.6 g, the “% variation vs control paw” value [3, 15] was −21% and the “% variation vs pm-drug threshold” value [3, 15] was 41%. The “% variation vs vehicle-treated group” value [3, 15] was 32%, the “Nociceptive threshold” value [3, 15] was 270 ± 11.6 g and the “% variation vs control paw” value [3, 16] was −23%. The “% variation vs pm-drug threshold” value [3, 16] was 44%, the “% variation vs vehicle-treated group” value [3, 16] was 28% and the “Nociceptive threshold” value [3, 16] was 262 ± 12.5 g. The “% variation vs control paw” value [3, 17] was −23%, the “% variation vs pre-drug threshold” value [3, 17] was 38% and the “% variation vs vehicle-treated group” value [3, 17] was 9%. For the same compound, the “Nociceptive threshold” value [3, 17] was 234 ± 15.5 g, the “% variation vs control paw” value [3, 18] was −36% and the “% variation vs pre-drug threshold” value [3, 18] was 1%. For the same compound, the “% variation vs vehicle-treated group” value [3, 18] was −9%, the “Nociceptive threshold” value [3, 18] was 194 ± 13.0 g and the “% variation vs control paw” value [3, 19] was −27%. The “% variation vs pre-drug threshold” value [3, 19] was 16%, the “% variation vs vehicle-treated group” value [3, 19] was −1% and the “Nociceptive threshold” value [3, 19] was 212 ± 15.8 g. The “effect on nociceptive (pain) threshold of the affected paw, in words” value [3, 20] was “dose-dependently restores the pain threshold lowered by chronic constriction injury”, the “time at which efficacy was apparent post-dose” value [3, 20] was 30 min and the “time for which efficacy remained significant” value [3, 20] was 2 h. The max effect ([3]; whatever the dose) was 59%.

In the case of `CN1CC[C@]23c4c5ccc(O)c4O[C@H]2[C@@H](O)C=C[C@H]3[C@H]1C5.Cl` [Morphine HCl, reference compound], the “Nociceptive threshold” value ([3]; control paw, TO, 3 mg/kg s.c.) is reported as 349 ± 11.1 g, the “% variation vs control paw” value [3, 21] is reported as −47% and the “% variation vs vehicle-treated group” value [3, 21] is reported as −8%. The “Nociceptive threshold” value [3, 21] was 184 ± 11.9 g, the “% variation vs control paw” value [3, 22] was −11% and the “% variation vs pre-drug threshold” value [3, 22] was 212%. The “% variation vs vehicle-treated group” value [3, 22] was 194%, the “Nociceptive threshold” value [3, 22] was 576 ± 46.8 g and the “% variation vs control paw” value [3, 23] was −6%. For the same compound, the “% variation vs pre-drug threshold” value [3, 23] was 212%, the “% variation vs vehicle-treated group” value [3, 23] was 159% and the “Nociceptive threshold” value [3, 23] was 576 ± 28.8 g. For the same compound, the “% variation vs control paw” value [3, 24] was −11%, the “% variation vs pm-drug threshold” value [3, 24] was 110% and the “% variation vs vehicle-treated group” value [3, 24] was 90%. For the same compound, the “Nociceptive threshold” value [3, 24] was 387 ± 40.4 g, the “% variation vs control paw” value [3, 25] was −19% and the “% variation vs pre-drug threshold” value [3, 25] was 31%. For the same compound, the “% variation vs vehicle-treated group” value [3, 25] was 13% and the “Nociceptive threshold” value [3, 25] was 242 ± 19.0 g.

For `NCC1(CC(=O)O)CCCCC1` [gabapentin], the “anti-hyperalgesic effect, typical range of non-opioid treatments” value [4] is given as 40-50%.
